Measurements taken from patent US20110263588A1, “TRICYCLIC COMPOUNDS AS GLUTAMATE RECEPTOR MODULATORS” (GLAXO GROUP LIMITED, priority 2008, published 2011).

These compounds were tested against T1, human mGlu5 recombinant receptor (Homo sapiens, UniProt P41594) (assay: mGluR5 calcium mobilization in inducible mGluR5 CHO cells (aequorin luminescence, antagonist mode)). Details: Table 2; antagonist activity against EC80 glutamate, inducible CHO cell line expressing human mGlu5 and Aequorin; read-out: IC50 (uM) Ca^++ flux.
T1 construct: expressed in transfected cells; host or cells: inducible CHO cell line stably expressing Aequorin (Euroscreen FAST); doxycycline-responsive promoter
T1 sequence (P41594 21-1212): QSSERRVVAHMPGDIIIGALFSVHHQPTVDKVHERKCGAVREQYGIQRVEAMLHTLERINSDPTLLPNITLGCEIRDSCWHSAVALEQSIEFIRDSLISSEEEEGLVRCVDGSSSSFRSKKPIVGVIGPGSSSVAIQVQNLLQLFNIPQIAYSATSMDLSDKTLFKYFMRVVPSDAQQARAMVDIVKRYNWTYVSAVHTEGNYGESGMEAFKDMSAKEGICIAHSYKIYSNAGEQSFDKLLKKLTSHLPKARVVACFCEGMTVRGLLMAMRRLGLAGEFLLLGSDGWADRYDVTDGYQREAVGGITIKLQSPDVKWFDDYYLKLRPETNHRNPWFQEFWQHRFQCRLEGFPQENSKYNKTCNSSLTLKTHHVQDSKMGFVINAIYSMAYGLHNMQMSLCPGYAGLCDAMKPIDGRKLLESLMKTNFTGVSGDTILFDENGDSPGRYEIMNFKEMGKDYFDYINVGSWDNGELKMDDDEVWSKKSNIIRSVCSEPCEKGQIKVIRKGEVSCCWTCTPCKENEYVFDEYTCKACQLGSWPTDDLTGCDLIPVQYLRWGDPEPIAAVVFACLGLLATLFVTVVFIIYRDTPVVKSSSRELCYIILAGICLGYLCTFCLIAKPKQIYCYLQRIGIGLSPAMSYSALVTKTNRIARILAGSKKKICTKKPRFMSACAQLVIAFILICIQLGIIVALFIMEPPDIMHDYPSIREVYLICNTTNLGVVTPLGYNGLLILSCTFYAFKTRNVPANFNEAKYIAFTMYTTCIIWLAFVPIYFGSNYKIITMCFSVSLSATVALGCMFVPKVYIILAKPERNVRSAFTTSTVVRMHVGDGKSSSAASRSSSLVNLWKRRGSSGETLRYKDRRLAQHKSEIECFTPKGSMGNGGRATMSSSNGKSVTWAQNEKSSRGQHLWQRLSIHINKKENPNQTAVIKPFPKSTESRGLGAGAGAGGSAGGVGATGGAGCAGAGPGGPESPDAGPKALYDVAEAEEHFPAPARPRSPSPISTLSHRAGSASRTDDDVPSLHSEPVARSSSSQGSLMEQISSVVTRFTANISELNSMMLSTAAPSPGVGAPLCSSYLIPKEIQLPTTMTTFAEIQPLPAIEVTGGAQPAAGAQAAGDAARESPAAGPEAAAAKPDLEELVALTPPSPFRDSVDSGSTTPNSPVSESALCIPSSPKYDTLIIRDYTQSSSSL
Type: cell-based
Description: mGluR5 Calcium Mobilization in Inducible mGluR5 CHO Cells
To functionally measure mGluR5 calcium mobilization in response to agonists or antagonists, an inducible CHO cell line expressing the human mGlu5 recombinant receptor was used. This cell line also stably expressed Aequorin (Euroscreen FAST), a photoprotein that spontaneously couples with coelenterazine h when added exogenously in the cell media. The Aequorin-coelenterzine h complex undergoes a conformational change upon binding of calcium ions which results in the emission of blue light (wavelength 469 nm) that was measured using a Hamamatsu Functional Drug Screening System 6000.
mGluR5 expression was induced by a doxycycline responsive promoter by growing cells to mid-log phase for 18 hours in media without antibiotics and supplemented with doxycycline (600 ng/mL). Cells were detached from the plate by gentle flushing using PBS-EDTA (5 mM EDTA) and centrifuged for collection and resuspended in “assay buffer” (HBSS, 2.1 mM CaCl2, 2 ug/mL glutamate-pyruvate transaminase, 4 mM MEM sodium pyruvate, and 0.1% protease free BSA). Cells were incubated with coelenterazine h (Molecular Probes) at room temperature for 4 hours before testing.
To measure mGluR5 antagonist activity, cell suspensions containing test compound were mixed with EC80 glutamate and emission of light was recorded. Reference and test compounds were tested at several concentrations in duplicate to obtain dose response curves using the Prism GraphPad software (GraphPad Software Inc.). IC50 values were calculated from the dose response curves using the equation:
Y=Bottom+(Top−Bottom)/(1+10̂((LogEC50−X)*HillSlope)).

| SMILES | IC50 |
| --- | --- |
| Cn1nc(C(=O)Nc2cccc(Cl)c2)c2c1-c1cc(F)ccc1OC2 [Example 1, N-(3-Chlorophenyl)-8-fluoro-1-methyl-1,4-dihydrochromeno[4,3-c]pyrazole-3-carboxamide] | < 1 µM |
| Cn1nc2c(c1C(=O)Nc1cccc(Cl)c1)COc1ccc(F)cc1-2 [Example 2, N-(3-Chlorophenyl)-8-fluoro-2-methyl-2,4-dihydrochromeno[4,3-c]pyrazole-3-carboxamide] | < 1 µM |
| Cn1nc(C(=O)Nc2cccc(Cl)c2)c2c1-c1ccccc1OC2(C)C [Example 4, N-(3-Chlorophenyl)-1,4,4-trimethyl-1,4-dihydrochromeno[4,3-c]pyrazole-3-carboxamide] | > 10 µM |
| Cc1cccc(NC(=O)c2nn(C)c3c2COc2cc(F)ccc2-3)n1 [Example 6, 7-Fluoro-1-methyl-N-(6-methylpyridin-2-yl)-1,4-dihydrochromeno[4,3-c]pyrazole-3-carboxamide] | > 10 µM |
| Cc1cccc(NC(=O)c2n[nH]c3c2COc2ccccc2-3)n1 [Example 7, N-(6-Methylpyridin-2-yl)-1,4-dihydrochromeno[4,3-c]pyrazole-3-carboxamide] | > 10 µM |
| Cn1nc(C(=O)Nc2cc(C#N)ccn2)c2c1-c1ccccc1OC2 [Example 8, N-(4-Cyanopyridin-2-yl)-1-methyl-1,4-dihydrochromeno[4,3-c]pyrazole-3-carboxamide] | > 10 µM |
| Cn1nc(C(=O)Nc2ccc3c(c2)OCCO3)c2c1-c1ccccc1OC2 [Example 9, N-(2,3-Dihydrobenzo[b][1,4]dioxin-6-yl)-1-methyl-1,4-dihydrochromeno[4,3-c]pyrazole-3-carboxamide] | > 10 µM |
| CCN(Cc1nn(C)c2c1COc1ccccc1-2)C(=O)c1ccc(Br)o1 [Example 11, 5-Bromo-N-ethyl-N-((1-methyl-1,4-dihydrochromeno[4,3-c]pyrazol-3-yl)methyl)furan-2-carboxamide] | > 10 µM |
| Cc1cccc(NC(=O)c2nn(C)c3c2CCc2cccnc2-3)n1 [Example 13, 1-Methyl-N-(6-methylpyridin-2-yl)-4,5-dihydro-1H-pyrazolo[4,3-h]quinoline-3-carboxamide] | < 1 µM |
| Cn1nc(C(=O)Nc2cccc(Cl)c2)c2c1-c1ccccc1CC2 [Example 14, N-(3-Chlorophenyl)-1-methyl-4,5-dihydro-1H-benzo[g]indazole-3-carboxamide] | < 1 µM |
| Cc1cccc(NC(=O)c2nn(C(C)C)c3c2CCc2cccnc2-3)n1 [Example 15] | > 10 µM |
| CCn1nc(C(=O)Nc2cccc(C)n2)c2c1-c1ncccc1CC2 [Example 16, 1-Ethyl-N-(6-methylpyridin-2-yl)-4,5-dihydro-1H-pyrazolo[4,3-h]quinoline-3-carboxamide] | < 1 µM |
| Cc1cccc(NC(=O)c2nn(C)c3c2CCc2ccncc2-3)n1 [Example 17, 1-Methyl-N-(6-methylpyridin-2-yl)-4,5-dihydro-1H-pyrazolo[4,3-h]isoquinoline-3-carboxamide] | < 1 µM |
| Cc1cccc(NC(=O)c2nn(C)c3c2CCc2ccc(C)nc2-3)n1 [Example 18] | < 1 µM |
| CC(=O)N1Cc2c(C(=O)Nc3cccc(Cl)c3)nn(C)c2-c2ccccc21 [Example 19] | < 1 µM |
| Cn1nc(C(=O)Nc2cccc(Cl)c2)c2cnc3ccccc3c21 [Example 20, N-(3-Chlorophenyl)-1-methyl-1H-pyrazolo[4,3-c]quinoline-3-carboxamide] | < 1 µM |
| Cn1nc(C(=O)Nc2cccc(Cl)c2)c2c1-c1ccccc1NC2 [Example 21, N-(3-Chlorophenyl)-1-methyl-4,5-dihydro-1H-pyrazolo[4,3-c]quinoline-3-carboxamide] | < 1 µM |
| Cc1cccc(NC(=O)c2nn(C)c3c2CCCc2cccnc2-3)n1 [Example 22, 3-Methyl-N-(6-methylpyridin-2-yl)-3,4,14-triazatricyclo[8.4.0.0̂{2,6}]tetradeca-1(14),2(6),4,10,12-pentaene-5-carboxamide] | < 1 µM |
| Cc1cccc(NC(=O)c2c3c(nn2C)-c2ncccc2CCC3)n1 [Example 23, 4-Methyl-N-(6-methylpyridin-2-yl)-3,4,14-triazatricyclo[8.4.0.0̂{2,6}]tetradeca-1(14),2,5,10,12-pentaene-5-carboxamide] | > 10 µM |
| Cn1nc2c(c1C1CCCN(C(=O)c3ccc(F)cc3)C1)CCc1ccccc1-2 (centres unmarked) [Example 24, (4-Fluorophenyl)(3-(2-methyl-4,5-dihydro-2H-benzo[g]indazol-3-yl)piperidin-1-yl)methanone] | > 10 µM |
| Cn1nc(C2CCCN(C(=O)c3ccc(F)cc3)C2)c2c1-c1ccccc1CC2 (centres unmarked) [Example 25, (4-Fluorophenyl)(3-(1-methyl-4,5-dihydro-1H-benzo[g]indazol-3-yl)piperidin-1-yl)methanone] | > 10 µM |

Second part, the compound after the results:

| IC50 | SMILES |
| --- | --- |
| 1 to 10 µM | Cn1nc(C(=O)Nc2cc(Cl)ccn2)c2c1-c1ccccc1OC2 [Example 3, N-(4-Chloropyridin-2-yl)-1-methyl-1,4-dihydrochromeno[4,3-c]pyrazole-3-carboxamide] |
| > 10 µM | Cn1nc(C(=O)Nc2cccc(Cl)c2)c2c1-c1cc(Cl)ccc1OC2 [Example 5, N-(3-Chlorophenyl)-8-chloro-1-methyl-1,4-dihydrochromeno[4,3-c]pyrazole-3-carboxamide] |
| > 10 µM | Cn1nc(C(=O)N2CCOc3ccccc32)c2c1-c1ccccc1OC2 [Example 10, (2H-Benzo[b][1,4]oxazin-4(3H)-yl)(1-methyl-1,4-dihydrochromeno[4,3-c]pyrazol-3-yl)methanone] |
| 1 to 10 µM | Cn1nc(CNc2cccc(Cl)c2)c2c1-c1ccccc1OC2 [Example 12] |

Same assay, conditions: Table 3; antagonist activity against EC80 glutamate, inducible CHO cell line expressing human mGlu5 and Aequorin; read-out: IC50 (uM) Ca^++ flux

| SMILES | IC50 |
| --- | --- |
| Cc1ccc2c(c1)-c1c(c(C(=O)Nc3cccc(Cl)c3)nn1C)CS2 [N-(3-chlorophenyl)-1,8-dimethyl-1,4-dihydrothiochromeno[4,3-c]pyrazole-3-carboxamide] | < 1 µM |
| Cn1nc(C(=O)Nc2cccc(Cl)c2)c2c1-c1ccccc1SC2 [N-(3-chlorophenyl)-1-methyl-1,4-dihydrothiochromeno[4,3-c]pyrazole-3-carboxamide] | < 1 µM |
| Cn1nc(C(=O)Nc2cccc(Cl)c2)c2c1-c1ccsc1CC2 [N-(3-chlorophenyl)-1-methyl-4,5-dihydro-1H-thieno[2,3-g]indazole-3-carboxamide] | > 10 µM |
| O=C(Nc1cccc(Cl)c1)c1noc2c1CSc1ccccc1-2 [N-(3-chlorophenyl)-4H-thiochromeno[3,4-d]isoxazole-3-carboxamide] | < 1 µM |
| COc1cccc(NC(=O)c2n[nH]c3c2COc2ccccc2-3)c1 [N-(3-methoxyphenyl)-1,4-dihydrochromeno[4,3-c]pyrazole-3-carboxamide] | > 10 µM |
| O=C(Nc1ccc(Cl)cc1)c1n[nH]c2c1CCc1ccccc1-2 [N-(4-chlorophenyl)-4,5-dihydro-1H-benzo[g]indazole-3-carboxamide] | > 10 µM |
| COc1ccc(NC(=O)c2n[nH]c3c2COc2ccccc2-3)cc1 [N-(4-methoxyphenyl)-1,4-dihydrochromeno[4,3-c]pyrazole-3-carboxamide] | > 10 µM |

Second part, the compound after the results:

| IC50 | SMILES |
| --- | --- |
| > 10 µM | Cn1nc(C(=O)Nc2cccc(C(F)(F)F)c2)c2c1-c1ccccc1OC2 [1-methyl-N-(3-(trifluoromethyl)phenyl)-1,4-dihydrochromeno[4,3-c]pyrazole-3-carboxamide] |
| 1 to 10 µM | Cn1nc(C(=O)Nc2ccccc2Cl)c2c1-c1ccccc1OC2 [N-(2-chlorophenyl)-1-methyl-1,4-dihydrochromeno[4,3-c]pyrazole-3-carboxamide] |
| > 10 µM | Cn1nc(C(=O)Nc2ccc(F)c(Cl)c2)c2c1-c1ccccc1OC2 [N-(3-chloro-4-fluorophenyl)-1-methyl-1,4-dihydrochromeno[4,3-c]pyrazole-3-carboxamide] |
| > 10 µM | Cn1nc(C(=O)NCc2cccc(Cl)c2)c2c1-c1ccccc1OC2 [N-(3-chlorobenzyl)-1-methyl-1,4-dihydrochromeno[4,3-c]pyrazole-3-carboxamide] |
| > 10 µM | CN(C(=O)c1nn(C)c2c1COc1ccccc1-2)c1cccc(Cl)c1 [N-(3-chlorophenyl)-N,1-dimethyl-1,4-dihydrochromeno[4,3-c]pyrazole-3-carboxamide] |
| > 10 µM | CN(C(=O)c1noc2c1COc1ccccc1-2)c1cccc(Cl)c1 [N-(3-chlorophenyl)-N-methyl-4H-chromeno[3,4-d]isoxazole-3-carboxamide] |
| > 10 µM | COc1cccc(NC(=O)c2nn(C)c3c2COc2ccccc2-3)c1 [N-(3-methoxyphenyl)-1-methyl-1,4-dihydrochromeno[4,3-c]pyrazole-3-carboxamide] |
| > 10 µM | Cn1nc(C(=O)Nc2ccc(Cl)cc2)c2c1-c1ccccc1OC2 [N-(4-chlorophenyl)-1-methyl-1,4-dihydrochromeno[4,3-c]pyrazole-3-carboxamide] |
| > 10 µM | Cn1nc(C(=O)Nc2ccc(F)cc2)c2c1-c1ccccc1OC2 [N-(4-fluorophenyl)-1-methyl-1,4-dihydrochromeno[4,3-c]pyrazole-3-carboxamide] |
